Assays:
PA-TU-8902 xenograft = experiment: Anti-tumor activity in PA-TU-8902 xenograft mouse; assay type: in vivo; conditions: 30 mg/kg, tail vein, twice a week for two weeks, male nude mice
Protocol: (§1) Test Example 4: Evaluation of Anti-Tumor Activity in Human KRAS G12V Mutant-Positive Pancreatic Cancer Line PA-TU-8902 or Human KRAS G12D Mutant-Positive Pancreatic Cancer Line PK-59 Xenograft Mouse
(§2) PA-TU-8902 cells or PK-59 cells (RIKEN BRC, RCB1901) were cultured using DMEM medium or RPMI-1640 medium containing 10% fetal bovine serum, respectively, in the presence of 5% CO2 at 37° C. The PA-TU-8902 cells or the PK-59 cells were collected and suspended in PBS, and two equivalents of VitroGel Hydrogel Matrix (from TheWell Bioscience) was added. A cell suspension prepared at 1.0-2.0×10^7 cells/mL was subcutaneously inoculated in a volume of 100 μL in 4- to 6-week-old male nude mice (BALB/c-nu (nu/nu), from The Jackson Laboratory Japan, Inc.). After about two weeks of the inoculation, the mice were divided into groups so that all the groups had approximately the same tumor volume and body weight, and administration of a subject compound was started on the next day. The test was conducted for five mice for each of a solvent group and a subject compound administration group. The solvent used was a solvent containing ethanol (from FUJIFILM Wako), an aqueous (2-hydroxypropyl)-β-cyclodextrin (HP-PCD) solution (from ROQUETTE), HCO-40 (from Nikko Chemicals Co., Ltd.) dissolved in a 5% glucose solution (from Otsuka Pharmaceutical) at a ratio of 4%, 0.5%, and 9%, respectively. The compound was dissolved using the solvent. The subject compound dissolved in the solvent or the solvent was administered into tail vein. The administration was performed once or twice a week for two weeks. The tumor size and the body weight were measured twice a week. The tumor volume was calculated by using the following formula.
(§3) [Tumor volume (mm^3)]=[Major axis of tumor (mm)]×[Minor axis of tumor (mm)]^2×0.5
(§4) The tumor growth inhibition (%) by the subject compound was calculated with the tumor volume of the subject compound administration group on the previous day of the start of the administration taken as 100% inhibition and the tumor volume of the solvent group of the day of the final measurement taken as 0% inhibition.

RAS G12D = target: T1, RAS G12D (Homo sapiens, UniProt P01116, G12D); experiment: RAS G12D degradation activity, Cell ELISA, AsPC-1; assay type: cell-based; conditions: AsPC-1 cells, 24 hours; read-out: DC50 (RAS G12D 50% degradation value)
T1 construct: host or cells: AsPC-1 human pancreatic cancer cells
Protocol: Test Example 1-2: Evaluation of RAS G12D Degradation Activity on Human KRAS G12D Mutant-Positive Pancreatic Cancer Line AsPC-1
The RAS G12D degradation activities of subject compounds were evaluated in the same manner as in Test Example 1-1 by measuring the expression levels of RAS G12D by a Cell ELISA method.
AsPC-1 cells (ATCC, CRL-1682) were seeded at 36 μL per well on a 384-well plate to give 2.0×10^4 cells per well. As for the cell culture conditions, RPMI-1640 medium (from Sigma-Aldrich) containing 10% fetal bovine serum was used in the presence of 5% CO2 at 37° C.
The next day, the subject compounds (10 points having final concentrations in the range of 3 μM to 0.1 nM) and DMSO, which was the solvent for the subject compounds, as a negative control were diluted 100-fold with a fresh medium and were each added at 4 μL per well, followed by culturing for 24 hours.
The next day, the procedures from the immobilization of the cells to before the addition of the blocking solution were performed by the same methods as in Test Example 1-1. A blocking solution (Intercept Blocking Buffer; from LI-COR Biosciences) was added at 20 μL per well. After allowing the plate to stand for 30 minutes at room temperature, the supernatant was removed by centrifugation. A solution obtained by diluting an anti-R-actin antibody (1,000-fold dilution) with the blocking solution was added to the wells of the positive control as a primary antibody, and a solution obtained by diluting an anti-Ras (G12D Mutant Specific) antibody (Ras (G12D Mutant Specific) (D8H7) Rabbit mAb; from Cell Signaling Technology; 1,000-fold dilution) and an anti-3-actin antibody (1,000-fold dilution) with the blocking solution was added to the other wells as primary antibodies, each at 15 μL per well. The plate was allowed to stand overnight at 4° C.
The next day, the supernatant was removed by centrifugation, and the plate was washed with PBS. The supernatant was removed by centrifugation, and a solution obtained by diluting an anti-rabbit IgG antibody and an anti-mouse IgG antibody 1,000-fold with the blocking solution was added at 15 μL per well as secondary antibodies. After allowing the plate to stand at room temperature for an hour, the supernatant was removed by centrifugation, and the plate was washed with PBS. After removing the supernatant, the plate was dried as it was with air at room temperature for two hours or more, and the 700-nm and 800-nm fluorescent signals were measured with Aerius.
With the RAS G12D signaling value at the time of addition of DMSO corrected with the signaling value of β-actin taken as 0% and with the RAS G12D signaling value under the conditions of staining with the anti-β-actin antibody alone taken as 100%, the RAS G12D degradation rates were calculated. The 50% degradation values (DC50) were calculated by Sigmoid-Emax model nonlinear regression analysis.

PK-59 xenograft = experiment: Anti-tumor activity in PK-59 xenograft mouse; assay type: in vivo; conditions: 10 mg/kg, tail vein, once a week for two weeks, male nude mice
Protocol: as §1, §2, §3, §4

T1 sequence (P01116 1-188 isoform P01116-2 G12D): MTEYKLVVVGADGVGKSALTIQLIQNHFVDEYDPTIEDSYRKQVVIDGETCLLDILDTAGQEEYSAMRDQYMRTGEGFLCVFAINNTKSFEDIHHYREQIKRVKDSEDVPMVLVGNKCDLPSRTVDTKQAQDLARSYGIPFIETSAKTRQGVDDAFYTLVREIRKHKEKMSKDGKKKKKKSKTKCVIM

For `CO[C@@H](C)COc1nc(NC2CN(C(=O)O[C@H]3C[C@@H](N(C)C)C3)C2)c2cc(C3CC3)c(-c3c(C)c(F)cc4[nH]ncc34)c(OCc3ccc(-c4cn([C@H](C(=O)N5C[C@H](O)C[C@H]5C(=O)N[C@@H](CO)c5ccc(-c6ocnc6C)cc5)C(C)C)nn4)cc3)c2n1` (atropisomer, axis not shown; (M)) [Example 1, (1s,3R)-3-(dimethylamino)cyclobutyl 3-({(7M)-6-cyclopropyl-7-(6-fluoro-5-methyl-1H-indazol-4-yl)-8-{[4-(1-{(2S)-1-[(2S,4R)-4-hydroxy-2-({(1R)-2-hydroxy-1-[4-(4-methyl-1,3-oxazol-5-yl)phenyl]ethyl}carbamoyl)pyrrolidin-1-yl]-3-methyl-1-oxobutan-2-yl}-1H-1,2,3-triazol-4-yl)phenyl]methoxy}-2-[(2S)-2-methoxypropoxy]quinazolin-4-yl}amino)azetidine-1-carboxylate], the “Anti-tumor activity at final measurement (PA-TU-8902 xenograft mouse), tumor growth inhibition” value (PA-TU-8902 xenograft) was 69% inhibition, the DC50 (RAS G12D) was 5 nM and the “Anti-tumor activity at final measurement (PK-59 xenograft mouse), tumor growth inhibition” value (PK-59 xenograft) was 68% inhibition.

In the case of `CO[C@@H](C)COc1cc(OC2CN(C(=O)N3CC(CN(C)C)C3)C2)c2cc(C3CC3)c(-c3c(C)c(F)cc4[nH]ncc34)c(OCc3ccc(-c4cn([C@H](C(=O)N5C[C@H](O)C[C@H]5C(=O)N[C@@H](CO)c5ccc(-n6cncn6)cc5)C(C)C)nn4)cc3)c2n1` (atropisomer, axis not shown; (M)) [Example 5, (4R)-1-[(2S)-2-(4-{4-[({(7M)-6-cyclopropyl-4-[(1-{3-[(dimethylamino)methyl]azetidine-1-carbonyl}azetidin-3-yl)oxy]-7-(6-fluoro-5-methyl-1H-indazol-4-yl)-2-[(2S)-2-methoxypropoxy]quinolin-8-yl}oxy)methyl]phenyl}-1H-1,2,3-triazol-1-yl)-3-methylbutanoyl]-4-hydroxy-N-{(1R)-2-hydroxy-1-[4-(1H-1,2,4-triazol-1-yl)phenyl]ethyl}-L-prolinamide], the “Anti-tumor activity at final measurement (PA-TU-8902 xenograft mouse), tumor growth inhibition” value (PA-TU-8902 xenograft) is reported as 56% inhibition, the DC50 (RAS G12D) is reported as 6 nM and the “Anti-tumor activity at final measurement (PK-59 xenograft mouse), tumor growth inhibition” value (PK-59 xenograft) is reported as 92% inhibition.

For `CO[C@@H](C)COc1nc(NC2CN(C(=O)O[C@H]3C[C@@H](N(C)C)C3)C2)c2cc(C3CC3)c(-c3c(C)c(F)cc4[nH]ncc34)c(OCc3ccc(-c4cn([C@H](C(=O)N5C[C@H](O)C[C@H]5C(=O)N[C@@H](CO)c5ccc(-c6scnc6C)cc5)C(C)C)nn4)cc3)c2n1` (atropisomer, axis not shown; (M)) [Example 11, (1s,3R)-3-(dimethylamino)cyclobutyl 3-({(7M)-6-cyclopropyl-7-(6-fluoro-5-methyl-1H-indazol-4-yl)-8-{[4-(1-{(2S)-1-[(2S,4R)-4-hydroxy-2-({(1R)-2-hydroxy-1-[4-(4-methyl-1,3-thiazol-5-yl)phenyl]ethyl}carbamoyl)pyrrolidin-1-yl]-3-methyl-1-oxobutan-2-yl}-1H-1,2,3-triazol-4-yl)phenyl]methoxy}-2-[(2S)-2-methoxypropoxy]quinazolin-4-yl}amino)azetidine-1-carboxylate], the “Anti-tumor activity at final measurement (PA-TU-8902 xenograft mouse), tumor growth inhibition” value (PA-TU-8902 xenograft) was 73% inhibition, the DC50 (RAS G12D) was 4 nM and the “Anti-tumor activity at final measurement (PK-59 xenograft mouse), tumor growth inhibition” value (PK-59 xenograft) was 95% inhibition.

With `CO[C@@H](C)COc1cc(OC2CN(C(=O)NCCN(C)C)C2)c2cc(C3CC3)c(-c3c(C)c(F)cc4[nH]ncc34)c(OCc3ccc(-c4cn([C@H](C(=O)N5C[C@H](O)C[C@H]5C(=O)N[C@@H](CO)c5ccc(-n6cncn6)cc5)C(C)C)nn4)cc3)c2n1` (atropisomer, axis not shown; (M)) [Example 12, (4R)-1-[(2S)-2-(4-{4-[({(7M)-6-cyclopropyl-4-[(1-{[2-(dimethylamino)ethyl]carbamoyl}azetidin-3-yl)oxy]-7-(6-fluoro-5-methyl-1H-indazol-4-yl)-2-[(2S)-2-methoxypropoxy]quinolin-8-yl}oxy)methyl]phenyl}-1H-1,2,3-triazol-1-yl)-3-methylbutanoyl]-4-hydroxy-N-{(1R)-2-hydroxy-1-[4-(1H-1,2,4-triazol-1-yl)phenyl]ethyl}-L-prolinamide] the “Anti-tumor activity at final measurement (PA-TU-8902 xenograft mouse), tumor growth inhibition” value (PA-TU-8902 xenograft) was 61% inhibition, the DC50 (RAS G12D) was 3 nM and the “Anti-tumor activity at final measurement (PK-59 xenograft mouse), tumor growth inhibition” value (PK-59 xenograft) was 63% inhibition.

With `CO[C@@H](C)COc1cc(OC2CN(C(=O)O[C@H]3C[C@@H](N(C)C)C3)C2)c2cc(C3CC3)c(-c3c(C)c(F)cc4[nH]ncc34)c(OCc3ccc(-c4cn([C@H](C(=O)N5C[C@H](O)C[C@H]5C(=O)N[C@@H](CO)c5ccc(-n6cncn6)cc5)C(C)C)nn4)cc3)c2n1` (atropisomer, axis not shown; (M)) [Example 13, (1s,3R)-3-(dimethylamino)cyclobutyl 3-({(7M)-6-cyclopropyl-7-(6-fluoro-5-methyl-1H-indazol-4-yl)-8-{[4-(1-{(2S)-1-[(2S,4R)-4-hydroxy-2-({(1R)-2-hydroxy-1-[4-(1H-1,2,4-triazol-1-yl)phenyl]ethyl}carbamoyl)pyrrolidin-1-yl]-3-methyl-1-oxobutan-2-yl}-1H-1,2,3-triazol-4-yl)phenyl]methoxy}-2-[(2S)-2-methoxypropoxy]quinolin-4-yl}oxy)azetidine-1-carboxylate] the “Anti-tumor activity at final measurement (PA-TU-8902 xenograft mouse), tumor growth inhibition” value (PA-TU-8902 xenograft) was 57% inhibition, the DC50 (RAS G12D) was 6 nM and the “Anti-tumor activity at final measurement (PK-59 xenograft mouse), tumor growth inhibition” value (PK-59 xenograft) was 78% inhibition.

In the case of `Cc1ncsc1-c1ccc([C@H](CO)NC(=O)[C@@H]2C[C@@H](O)CN2C(=O)[C@H](C(C)C)n2cc(-c3ccc(COc4c(-c5c(C)c(F)cc6[nH]ncc56)c(C5CC5)cc5c(NCc6cccnc6)nc(OC6CCOCC6)nc45)cc3)nn2)cc1` [Example 29], the DC50 (RAS G12D) is reported as 21 nM.

For `Cc1ncsc1-c1ccc([C@H](CO)NC(=O)[C@@H]2C[C@@H](O)CN2C(=O)[C@H](C(C)C)n2cc(-c3ccc(COc4c(-c5c(C)c(F)cc6[nH]ncc56)c(C5CC5)cc5c(N6CC[C@H]6C(N)=O)nc(OC6CCOCC6)nc45)cc3)nn2)cc1` [Example 35], the DC50 (RAS G12D) was 16 nM.

`CO[C@@H](C)COc1nc(OC2CN(C(=O)NCCN(C)C)C2)c2cc(C3CC3)c(-c3c(C)c(F)cc4[nH]ncc34)c(OCc3ccc(C(=O)N[C@H](C(=O)N4C[C@H](O)C[C@H]4C(=O)N[C@@H](CO)c4ccc(-c5scnc5C)cc4)C(C)C)cc3)c2n1` [Example 40, N-{4-[({(7M)-6-cyclopropyl-4-[(1-{[2-(dimethylamino)ethyl]carbamoyl}azetidin-3-yl)oxy]-7-(6-fluoro-5-methyl-1H-indazol-4-yl)-2-[(2S)-2-methoxypropoxy]quinazolin-8-yl}oxy)methyl]benzoyl}-L-valyl-(4R)-4-hydroxy-N-{(1R)-2-hydroxy-1-[4-(4-methyl-1,3-thiazol-5-yl)phenyl]ethyl}-L-prolinamide] was tested, and the DC50 (RAS G12D) was 47 nM.

From patent US20260049072A1, “HETEROCYCLIC COMPOUND FOR INDUCING DEGRADATION OF MUTANT KRAS PROTEIN” (Astellas Pharma Inc., priority 2022, published 2026)
